Measured values taken from US11109593B2, “Isoxazolin-5-one derivative and herbicide containing same as active ingredient” (HOKKO CHEMICAL INDUSTRY CO., LTD., priority 2017, dated 2021).

What follows are molecules tested on Echinochloa crus-galli (assay: Test Example 2: herbicidal effect test by treatment during growing period in paddy rice cultivation (seven days after seeding)). Settings: 120 g/10a active ingredient, assessed 14 days after treatment, dry weight vs untreated area.
Format: in vivo
How it was run: (§1)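 Greenhouse flooded-pot test, seeds sown in puddled paddy soil; emulsion applied into water 7 d after seeding, 120 g a.i./10 a. Dry-weight-based herbicidal rate at 14 d, n=2.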

SMILES | Herbicidal rate (%) Echinochloa crus-galli [%]
Cc1c(Cc2ccccc2N(C(=O)CC(C)C)S(=O)(=O)C(F)(F)F)c(=O)on1CC(C)(C)C [Compound 1-355] | 90
CCC(C)n1oc(=O)c(Cc2ccccc2N(C(=O)C(C)C)S(=O)(=O)C(F)(F)F)c1C (centres unmarked) [Compound 1-330] | 90

The molecules below were run on broad leaf weeds (Lindernia pyxidaria and Monochoria vaginalis) in the same assay as above. Settings: Lindernia pyxidaria, 120 g/10a active ingredient, assessed 14 days after treatment, dry weight vs untreated area.
Format: in vivo
How it was run: as §1

SMILES | Herbicidal rate (%) Lindernia pyxidaria [%]
Cc1c(Cc2ccccc2N(C(=O)CC(C)C)S(=O)(=O)C(F)(F)F)c(=O)on1CC(C)(C)C [Compound 1-355] | 90
CCC(C)n1oc(=O)c(Cc2ccccc2N(C(=O)C(C)C)S(=O)(=O)C(F)(F)F)c1C (centres unmarked) [Compound 1-330] | 90

Same assay, conditions: Monochoria vaginalis, 120 g/10a active ingredient, assessed 14 days after treatment, dry weight vs untreated area

SMILES | Herbicidal rate (%) Monochoria vaginalis [%]
Cc1c(Cc2ccccc2N(C(=O)CC(C)C)S(=O)(=O)C(F)(F)F)c(=O)on1CC(C)(C)C [Compound 1-355] | 90
CCC(C)n1oc(=O)c(Cc2ccccc2N(C(=O)C(C)C)S(=O)(=O)C(F)(F)F)c1C (centres unmarked) [Compound 1-330] | 90

Each molecule was assayed on Scirpus juncoides in the same assay as above. Settings: 120 g/10a active ingredient, assessed 14 days after treatment, dry weight vs untreated area.
Format: in vivo
How it was run: as §1

SMILES | Herbicidal rate (%) Scirpus juncoides [%]
Cc1c(Cc2ccccc2N(C(=O)CC(C)C)S(=O)(=O)C(F)(F)F)c(=O)on1CC(C)(C)C [Compound 1-355] | 90
CCC(C)n1oc(=O)c(Cc2ccccc2N(C(=O)C(C)C)S(=O)(=O)C(F)(F)F)c1C (centres unmarked) [Compound 1-330] | 90

The molecules below were run on Echinochloa crus-galli (assay: Test Example 4: herbicidal effect test by treatment of leave and stem in dry field farming (seven days after seeding)). Settings: 120 g/10a active ingredient; emulsion sprayed seven days after seeding; evaluated 14 days after treatment.
Format: in vivo
How it was run: (§2)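 Twenty seeds per species were mixed into the top 1 cm of alluvial soil in 36 cm^2 pots; emulsions were sprayed seven days after seeding at 100 L per 10 ares (120 g active ingredient per 10 ares). Herbicidal rate (%) = {1 − treated/untreated mean dry weight} × 100, 14 days after treatment, duplicate.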

SMILES | herbicidal effect (herbicidal rate), Echinochloa crus-galli [%]
Cc1c(Cc2ccccc2N(C(=O)CC(C)C)S(=O)(=O)C(F)(F)F)c(=O)on1CC(C)(C)C [Compound 1-355] | 90
CCC(C)n1oc(=O)c(Cc2ccccc2N(C(=O)C(C)C)S(=O)(=O)C(F)(F)F)c1C (centres unmarked) [Compound 1-330] | 90

These molecules were tested on Amaranthus viridis in the same assay as above. Settings: 120 g/10a active ingredient; emulsion sprayed seven days after seeding; evaluated 14 days after treatment.
Format: in vivo
How it was run: as §2

SMILES | herbicidal effect (herbicidal rate), Amaranthus viridis [%]
Cc1c(Cc2ccccc2N(C(=O)CC(C)C)S(=O)(=O)C(F)(F)F)c(=O)on1CC(C)(C)C [Compound 1-355] | 40
CCC(C)n1oc(=O)c(Cc2ccccc2N(C(=O)C(C)C)S(=O)(=O)C(F)(F)F)c1C (centres unmarked) [Compound 1-330] | 40

The molecules below were run on southern crabgrass in the same assay as above. Settings: 120 g/10a active ingredient; emulsion sprayed seven days after seeding; evaluated 14 days after treatment.
Format: in vivo
How it was run: as §2

SMILES | herbicidal effect (herbicidal rate), southern crabgrass [%]
Cc1c(Cc2ccccc2N(C(=O)CC(C)C)S(=O)(=O)C(F)(F)F)c(=O)on1CC(C)(C)C [Compound 1-355] | 90
CCC(C)n1oc(=O)c(Cc2ccccc2N(C(=O)C(C)C)S(=O)(=O)C(F)(F)F)c1C (centres unmarked) [Compound 1-330] | 90

Each molecule was assayed on Chenopodium album in the same assay as above. Settings: 120 g/10a active ingredient; emulsion sprayed seven days after seeding; evaluated 14 days after treatment.
Format: in vivo
How it was run: as §2

SMILES | herbicidal effect (herbicidal rate), Chenopodium album [%]
Cc1c(Cc2ccccc2N(C(=O)CC(C)C)S(=O)(=O)C(F)(F)F)c(=O)on1CC(C)(C)C [Compound 1-355] | 40
CCC(C)n1oc(=O)c(Cc2ccccc2N(C(=O)C(C)C)S(=O)(=O)C(F)(F)F)c1C (centres unmarked) [Compound 1-330] | 40

Each molecule was assayed on Echinochloa crus-galli (assay: Test Example 3: herbicidal effect test by treatment of dry field farming soil (one day after seeding)). Settings: 120 g/10a active ingredient, evaluated 14 days after treatment.
Format: in vivo
How it was run: (§3)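 Compound emulsions are sprayed on the soil surface one day after sowing (120 g a.i. per 10 ares) before weeds emerge. Effect is expressed as percent dry-weight reduction versus untreated controls 14 days post-treatment.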

SMILES | herbicidal rate, Echinochloa crus-galli [%]
Cc1c(Cc2ccccc2N(C(=O)CC(C)C)S(=O)(=O)C(F)(F)F)c(=O)on1CC(C)(C)C [Compound 1-355] | 90
CCC(C)n1oc(=O)c(Cc2ccccc2N(C(=O)C(C)C)S(=O)(=O)C(F)(F)F)c1C (centres unmarked) [Compound 1-330] | 90

Each molecule was assayed on Amaranthus viridis in the same assay as above. Settings: 120 g/10a active ingredient, evaluated 14 days after treatment.
Format: in vivo
How it was run: as §3

SMILES | herbicidal rate, Amaranthus viridis [%]
Cc1c(Cc2ccccc2N(C(=O)CC(C)C)S(=O)(=O)C(F)(F)F)c(=O)on1CC(C)(C)C [Compound 1-355] | 90
CCC(C)n1oc(=O)c(Cc2ccccc2N(C(=O)C(C)C)S(=O)(=O)C(F)(F)F)c1C (centres unmarked) [Compound 1-330] | 90

What follows are molecules tested on southern crabgrass in the same assay as above. Settings: 120 g/10a active ingredient, evaluated 14 days after treatment.
Format: in vivo
How it was run: as §3

SMILES | herbicidal rate, southern crabgrass [%]
Cc1c(Cc2ccccc2N(C(=O)CC(C)C)S(=O)(=O)C(F)(F)F)c(=O)on1CC(C)(C)C [Compound 1-355] | 90
CCC(C)n1oc(=O)c(Cc2ccccc2N(C(=O)C(C)C)S(=O)(=O)C(F)(F)F)c1C (centres unmarked) [Compound 1-330] | 90

The molecules below were run on Chenopodium album in the same assay as above. Settings: 120 g/10a active ingredient, evaluated 14 days after treatment.
Format: in vivo
How it was run: as §3

SMILES | herbicidal rate, Chenopodium album [%]
Cc1c(Cc2ccccc2N(C(=O)CC(C)C)S(=O)(=O)C(F)(F)F)c(=O)on1CC(C)(C)C [Compound 1-355] | 90
CCC(C)n1oc(=O)c(Cc2ccccc2N(C(=O)C(C)C)S(=O)(=O)C(F)(F)F)c1C (centres unmarked) [Compound 1-330] | 90

The molecules below were run on Echinochloa crus-galli (assay: Test Example 1: herbicidal effect test by treatment of rice paddy soil (immediately after seeding)). Settings: 120 g/10a active ingredient, dry weight vs untreated area, 14 days after treatment.
Format: in vivo
How it was run: (§4)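 Flooded paddy pot test in a glass greenhouse: emulsion diluted in water, dropped at 120 g a.i. per 10 ares just after sowing, water depth kept about 3 cm. Dry-weight reduction relative to untreated plants is scored at 14 days.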

SMILES | Herbicidal rate (%) Echinochloa crus-galli [%]
Cc1c(Cc2ccccc2N(C(=O)CC(C)C)S(=O)(=O)C(F)(F)F)c(=O)on1CC(C)(C)C [Compound 1-355] | 90
CCC(C)n1oc(=O)c(Cc2ccccc2N(C(=O)C(C)C)S(=O)(=O)C(F)(F)F)c1C (centres unmarked) [Compound 1-330] | 90

What follows are molecules tested on broad leaf weeds (Lindernia pyxidaria and Monochoria vaginalis) in the same assay as above. Settings: Lindernia pyxidaria, 120 g/10a active ingredient, dry weight vs untreated area, 14 days after treatment.
Format: in vivo
How it was run: as §4

SMILES | Herbicidal rate (%) Lindernia pyxidaria [%]
Cc1c(Cc2ccccc2N(C(=O)CC(C)C)S(=O)(=O)C(F)(F)F)c(=O)on1CC(C)(C)C [Compound 1-355] | 90
CCC(C)n1oc(=O)c(Cc2ccccc2N(C(=O)C(C)C)S(=O)(=O)C(F)(F)F)c1C (centres unmarked) [Compound 1-330] | 90

Same assay, conditions: Monochoria vaginalis, 120 g/10a active ingredient, dry weight vs untreated area, 14 days after treatment

SMILES | Herbicidal rate (%) Monochoria vaginalis [%]
Cc1c(Cc2ccccc2N(C(=O)CC(C)C)S(=O)(=O)C(F)(F)F)c(=O)on1CC(C)(C)C [Compound 1-355] | 90
CCC(C)n1oc(=O)c(Cc2ccccc2N(C(=O)C(C)C)S(=O)(=O)C(F)(F)F)c1C (centres unmarked) [Compound 1-330] | 90

What follows are molecules tested on Scirpus juncoides in the same assay as above. Settings: 120 g/10a active ingredient, dry weight vs untreated area, 14 days after treatment.
Format: in vivo
How it was run: as §4

SMILES | Herbicidal rate (%) Scirpus juncoides [%]
Cc1c(Cc2ccccc2N(C(=O)CC(C)C)S(=O)(=O)C(F)(F)F)c(=O)on1CC(C)(C)C [Compound 1-355] | 90
CCC(C)n1oc(=O)c(Cc2ccccc2N(C(=O)C(C)C)S(=O)(=O)C(F)(F)F)c1C (centres unmarked) [Compound 1-330] | 90
